Measured values: patent publication US9458194B2, “Compounds useful in the treatment and/or care of the skin and their cosmetic or pharmaceutical compositions” (Lubrizol Advanced Materials, Inc., priority 2013, dated 2016)
One block for each substance: values may come before it.

Columns and labels:
Type in all cases: cell-based
[1] = tested on: human fibulin-5 gene promoter; test: Luminescence assay of human fibulin-5 gene promoter activation (Firefly luciferase); details: positive control, 10 ng/mL
Protocol: (§1) The effect of the compounds of the invention on the activity of the fibulin-5 and LOXL1 promoters was studied and compared to the levels of basal expression of the untreated cells (negative control) and with the effect of Interleukin-1β (IL-1β) in the same conditions.
(§2) Cells from an epithelial cell line doubly transfected with fibulin-5 and LOXL1 human promoters in which the luciferase gene is under the regulatory control of said promoters (4×10^4 cells/well) were seeded in a white plate and in a 96-well transparent plate, both treated with polylysine, and were incubated in Dulbecco's Modified Eagle Medium (DMEM-Glutamax™), with 10% of FBS, 1% Penicillin-Streptomycin (P/S), 1 mg/ml of Geneticin® (G418) and […] at 37° C. in at atmosphere with 5% CO2. After the incubation, the cells were incubated for 6 hours at 37° C. in at atmosphere with 5% CO2 with DMEM without serum. Then, this medium was removed and the cells were treated with different compounds at 0.1 mg/ml, 0.5 mg/ml, 1 mg/ml or 2 mg/mL in DMEM/1% FBS for 16-24 hours. As a positive control to activate the fibulin-5 and LOXL1 promoters 10 ng/ml of IL-1β were used and as a negative control untreated cells were used, just with DMEM/1% FBS. The incubations and treatments were carried out in parallel in the white plate and the transparent plate and in triplicate for each condition. After the treatment, the relative light units per second were determined (RLU/s) in the white plate by means of consecutive quantification of the activities of Firefly luciferase (fibulin-5 promoter) and Renilla luciferase (LOXL1 promoter), and the number of total cells/well in the transparent plate by means of staining with Crystal Violet (CV). To determine the Firefly and Renilla luciferase activities the Dual-Glo Luciferase Assay System kit by Promega was used. The cells were briefly lysed and the Firefly luciferase substrate was added. After incubating for 10 min at 25° C., the RLU/s were quantified by luminescence reader (Lumistar-BMG). Then the Firefly signal was extinguished and the Renilla luciferase substrate was added. After incubating for 5 min at 25° C., the RLU/s were quantified by the same luminescence reader. With regard to the determination of the total number of cells by Crystal Violet, the CV dyes the DNA of the cells and the quantity of dye taken by the cells can be measured in an absorbency reader at 630 nm (Multiskan Ascent). The color obtained is directly proportional to the total number of cells per well. The cells were briefly incubated with 0.05% CV plus 4% Formalin for 20 minutes and after several washes with Milli-Q water, the cells were left to dry for 1-2 hours and then 0.1 M of HCl was added for its immediate reading. The RLU/s of the luciferases corresponding to each promoter were normalized by the average of the total number of cells per condition. Three independent assays with 3 measurements per assay were carried out for Ac-L-Asp-L-Val-L-Lys-L-Tyr-OH at 0.1 mg/mL and 1 mg/mL. 1 assay with 3 measurements was carried out for the other compounds and concentrations.
(§3) The increase in the activity of the promoters with regard to the levels of expression of the negative control was determined.

LOXL1 = test: Immunofluorescence of LOXL1 protein expression in human dermal fibroblasts; details: 48 hours, HDFa
Protocol: (§4) In this experiment the number of times that the expression of the proteins fibulin-5 and LOXL1 in human dermal fibroblasts is increased with regard to the basal levels in untreated cells (negative control) when treating the cells with 0.5 mg/ml of the product Ac-L-Asp-L-Val-L-Lys-L-Tyr-OH and it is compared with the effect of Interleukin-1β (IL-1β) at 20 ng/ml and TGF-β at 5 ng/ml (positive controls), which increase an average of 1.5 times and 2 times, respectively, the expression of these proteins, in the same conditions.
Adult human dermal fibroblasts were seeded (HDFa) (2.5×10^3 cells/well) in a 96-well transparent plate, treated with polylysine, and were incubated in complete medium 106 for 72 hours at 37° C. in an atmosphere with 5% CO2. After the incubation, the cells were treated with the different compounds in complete medium 106 for 48 hours at 37° C. in an atmosphere with 5% CO2. As positive controls of increase of the expression of the proteins fibulin-5 and LOXL1, 5 ng/ml of TGF-β and 20 ng/ml of IL-1β were used and as a negative control untreated cells were used, just with complete medium 106. The incubations and the treatments were carried out in quadruplicate for each condition. After the treatment, the levels of expression of both proteins were quantified relatively by using specific fluorescent antibodies, photographic recording by microscopy and subsequent quantification of the fluorescent signal using image processing software, the number of total cells by fluorescent staining of the nuclei (DAPI) and subsequent quantification in the same images. […] 16 hours later all the samples were stained with DAPI (4′,6-Diamidino-2-Phenylindole), fluorescent marker for the staining of nuclei, and the photographic recording was carried out by fluorescence microscopy in a Leica microscope. 2-4 images were taken per condition and per protein and the fluorescent signals were quantified (IOD) corresponding to each protein and the nuclei by means of image analysis software. […]

fibulin-5 = test: Immunofluorescence of fibulin-5 protein expression in human dermal fibroblasts; details: for Increase in the expression of the protein fibulin-5 with regard to the negative control: 48 hours, HDFa; for Average increase of the expression of the proteins fibulin-5 and LOXL1: positive control, average for both proteins
Protocol: as §4
Adult human dermal fibroblasts were seeded (HDFa) (2.5×10^3 cells/well) in a 96-well transparent plate, treated with polylysine, and were incubated in complete medium 106 for 72 hours at 37° C. in an atmosphere with 5% CO2. After the incubation, the cells were treated with the different compounds in complete medium 106 for 48 hours at 37° C. in an atmosphere with 5% CO2. As positive controls of increase of the expression of the proteins fibulin-5 and LOXL1, 5 ng/ml of TGF-β and 20 ng/ml of IL-1β were used and as a negative control untreated cells were used, just with complete medium 106. The incubations and the treatments were carried out in quadruplicate for each condition. After the treatment, the levels of expression of both proteins were quantified relatively by using specific fluorescent antibodies, photographic recording by microscopy and subsequent quantification of the fluorescent signal using image processing software, the number of total cells by fluorescent staining of the nuclei (DAPI) and subsequent quantification in the same images. For the determination of the expression of the proteins fibulin-5 and LOXL1 the cells were washed with PBS 48 hours after the treatments and were fixed with paraformaldehyde. Next, duplicates of each treatment were used to mark separately the fibulin-5 and LOXL1 proteins. For each of the proteins a specific primary monoclonal antibody was used (Abcam). After the primary incubation, the cells were washed with PBS and the secondary marking was carried out with specific fluorescent polyclonal antibodies for each primary antibody. For fibulin-5 an Alexa Fluor® 594 (red) secondary antibody was used and for LOXL1 an Alexa Fluor® 488 (green) secondary antibody was used. 16 hours later all the samples were stained with DAPI (4′,6-Diamidino-2-Phenylindole), fluorescent marker for the staining of nuclei, and the photographic recording was carried out by fluorescence microscopy in a Leica microscope. 2-4 images were taken per condition and per protein and the fluorescent signals were quantified (IOD) corresponding to each protein and the nuclei by means of image analysis software. The fibulin-5 and LOXL1 signals were normalized according to the number of total nuclei for each image. 3 independent assays were carried out.

[2] = tested on: human LOXL1 gene promoter; test: Luminescence assay of human LOXL1 gene promoter activation (Renilla luciferase); details: positive control, 10 ng/mL
Protocol: as §1, §2, §3

elastin = test: Elastin synthesis in human dermal fibroblasts (Fastin Elastin Assay); details: positive control, 10 ng/mL, 48 hours, vs negative control
Protocol: Stimulation of elastin synthesis induced by Ac-L-Asp-L-Val-L-Lys-L-Tyr-OH was evaluated by means of a quantitative method of staining, Fastin Elastin Assay (Tebu-Bio). Human dermal fibroblasts were trypsinized and seeded at a density of 7×10^4 cells/well in 6-well plates. After 72 hours of incubation at 37° C., 5% CO2, with a humidified atmosphere, a new medium was added with 0.01 μg/mL Ac-L-Asp-L-Val-L-Lys-L-Tyr-OH. Untreated cells were used as negative controls and cells treated with TGF-1β (Peprotech) were used as positive controls. The cells were incubated for an additional 48 hours at 37° C., 5% CO2, with humidified atmosphere. Subsequently, the elastin was solubilized and extracted, for which the cells were washed twice with PBS (Sigma) and a solution was added to uncouple the cells (Cell Dissociation Solution, Sigma). The suspension of cells was transferred to centrifuge tubes, 1 M Oxalic Acid was added provided by the kit and they were incubated at 100° C. for 1 hour. Once the elastin became soluble, a calibration curve was prepared with the elastin provided with the kit. From that point, the samples and dilutions of the calibration curve were processed following the kit instructions to isolate and stain the elastin. Lastly, the dye was extracted and the absorbency reading was carried out at a wave length of 540 nm in a TECAN GENios spectrophotometric reader.

- Increase in the activity of the human promoter of the FIBULIN 5 gene with regard to the negative control [1]: 80.40%
- Increase in the activity of the human promoter of the LOXL1 gene with regard to the negative control [2]: 156.26%
Substance: IL-1β: Interleukin-1β, positive control to activate the fibulin-5 and LOXL1 promoters and increase expression of the proteins [reference compound]
- Increase in the expression of the protein LOXL1 with regard to the negative control (LOXL1; 20 ng/mL): 87.50%
- Increase in the expression of the protein fibulin-5 with regard to the negative control (fibulin-5; 20 ng/mL): 42.07%
- Average increase of the expression of the proteins fibulin-5 and LOXL1 (fibulin-5; 20 ng/ml): 1.5 times

Substance: TGF-1β: TGF-1β (Peprotech), positive control in the elastin synthesis assay [reference compound]
- INCREASE IN ELASTIN SYNTHESIS (elastin): 35.6%

Substance: TGF-β
- Increase in the expression of the protein LOXL1 with regard to the negative control (LOXL1; 5 ng/mL): 45.93%
- Increase in the expression of the protein fibulin-5 with regard to the negative control (fibulin-5; 5 ng/mL): 147.72%
- Average increase of the expression of the proteins fibulin-5 and LOXL1 (fibulin-5; 5 ng/ml): 2 times
